Test results published in patent US12649712B2, “Indene compounds, pharmaceutical compositions thereof, and their therapeutic applications” (NucMito Pharmaceuticals Co. Ltd., priority 2020, dated 2026).

What was measured:
[1] = system: alpha-smooth muscle actin (α-SMA); assay: Inhibition of TGF-β induced expression of alpha-smooth muscle actin (α-SMA) in CFSC cells, western blot; assay type: cell-based; conditions: compound at 10 μM, TGF-β (10 ng/mL), 24 hours, decrease in band intensity vs TGF-β only
In short: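 Cells at 60–70% confluence in serum-free DMEM received compound at 10 μM plus TGF-β (10 ng/mL) for 24 h at 37 °C. NP-40 lysates were run on western blot for α-SMA and β-actin, with ECL bands quantified. % inhibition = decrease in band intensity versus TGF-β alone.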

[2] = system: CCl4-induced liver fibrosis in C57BL/6 mice; assay: Antifibrotic activity in CCl4-induced liver fibrosis, Sirius red staining of liver samples; assay type: in vivo; conditions: C57/BL6 mice, oral once daily for 2 weeks; malotilate 60 mg/kg, A11 and B9 50 mg/kg
Description: CCl4-induced liver fibrosis was described previously. Henderson et al., Proc. Nat'l. Acad. Sci. U.S.A. 2006, 103, 5060-5; Henderson et al., Nat. Med. 2013, 19, 1617-24. Briefly, eight-week-old C57BL/6 mice were randomly divided into two groups: a control group and a CCl4 administered group. Liver fibrosis was induced by intraperitoneal administration of 25% CCl4 at 0.5 mL/kg body weight (diluted in corn oil) twice weekly for 6 weeks. Dosing was started during the last 2 weeks of CCl4 administration. Malotilate (Mal) as a reference and compounds A11, A23, and B9 were each freshly prepared by dissolving in PEG 400 and orally administered in a dosing volume of 10 mL/kg. The mice were stratified (n=6-8 per group) based on their body weights and dosed once daily for 2 weeks with a vehicle, malotilate (60 mg/kg), compound A11 (50 mg/kg), compound A23 (50 mg/kg), or compound B9 (50 mg/kg). Their body weights were monitored daily during the intervention period. At the terminal of treatment, the mice were sacrificed and their liver samples were processed as below.
The mice liver samples were all taken at the same position of each large lobe, and then post-fixed in a 10% buffered formaldehyde for 48 h. The fixed livers were embedded in paraffin for microtome slicing into 5-μm-thick sections. The tissue sections were mounted onto MS-coated glass slides, deparaffinized, and stained with picric acid-Sirius red. Stained sections were photographed using a microscope with a digital camera. Images were taken at a full resolution with a single image dimension set at 1,360×1,024 pixels.
Total RNA was extracted from the liver using an MOLPURE® TRIEASY™ Plus Total RNA Kit (Yeasen, Shanghai, China). Total RNA (5 μg) was reverse-transcribed using 1st strand cDNA Synthesis SuperMix for qPCR (gDNA digester plus) Kit (Yeasen, Shanghai, China). […]

| Structure (SMILES) | inhibition at 10 µM [1] [%] | Sirius red pathological staining of liver samples: effect on fibrosis induced by CCl4 [2] |
| --- | --- | --- |
| CC1=C(CC(=O)O)c2cc(F)ccc2/C1=C\c1ccc(Oc2ccc(F)cc2)cc1 [Compound A11, 2-[(1Z)-5-Fluoro-1-{[4-(4-fluorophenoxy)phenyl]methylidene}-2-methyl-1H-inden-3-yl]acetic acid] | 80 to 90 | reversed the fibrosis induced by CCl4 |
| CC1=C(CC(=O)O)c2cc(F)ccc2/C1=C\c1ccc(C(C)C)cc1 [Compound B9, (Z)-2-(5-fluoro-2-methyl-1-(4-isopropylbenzylidene)-1H-inden-3-yl)acetic acid] | > 90 | reversed the fibrosis induced by CCl4 |
| CC1=C(CC(=O)O)c2cc(F)ccc2/C1=C\c1cccc(Oc2cccc(C(F)(F)F)c2)c1 [Compound D27, 2-[(1Z)-5-Fluoro-2-methyl-1-({3-[3-trifluoromethylphenoxy]phenyl}-methylidene)-1H-inden-3-yl]acetic acid] | > 90 |  |
| CC1=C(CC(=O)O)c2cc(F)ccc2/C1=C/c1ccc(Oc2ccc(F)c(F)c2)cc1 [Compound E1, 2-[(1E)-5-Fluoro-2-methyl-1-({4-[3,4-difluorophenoxy]phenyl}methylidene)-1H-inden-3-yl]acetic acid] | > 90 |  |
| CC1=C(CC(=O)O)c2cc(F)ccc2/C1=C/c1ccc(Oc2ccc(F)cc2)cc1 [Compound E2, 2-[(1E)-5-Fluoro-2-methyl-1-({4-[4-fluorophenoxy]phenyl}methylidene)-1H-inden-3-yl]acetic acid] | > 90 |  |
| CC1=C(CC(=O)O)c2cc(F)ccc2/C1=C/c1ccc(Oc2ccccc2)cc1 [Compound E3, 2-[(1E)-5-Fluoro-2-methyl-1-[(4-phenoxyphenyl)methylidene]-1H-inden-3-yl]acetic acid] | > 90 |  |
| CC1=C(CC(=O)O)c2cc(F)cc(F)c2/C1=C/c1ccc(Oc2ccc(F)cc2)cc1 [Compound E4, 2-[(1E)-5,7-Difluoro-2-methyl-1-({4-[4-fluorophenoxy]phenyl}methylidene)-1H-inden-3-yl]acetic acid] | > 90 |  |
| CC1=C(CC(=O)O)c2cc(F)cc(F)c2/C1=C/c1cccc(Oc2ccccc2)c1 [Compound E6, 2-[(1E)-5,7-Difluoro-1-(3-(phenoxy)benzylidene)-2-methyl-1H-inden-3-yl]-acetic acid] | > 90 |  |
| CC(C)OC(=O)C(C(=O)OC(C)C)=C1SC=CS1 [Mal, malotilate, reference compound] |  | reversed the fibrosis induced by CCl4 |
